Results published in patent publication US12508225B2, “Lipid compound and use thereof in delivery of nucleic acid” (BEIJING TRICISIONBIO THERAPEUTICS INC., priority 2021, dated 2025).

Test: TNS dye-binding assay for dissociation constant (pKa)
Assay type: physicochemical
Description: Ionizable lipids have two main roles: binding to nucleic acids and allowing the release of the nucleic acid molecules in cells.

Work on CCCCC/C=C\C/C=C\CCCCCCC(O)CNCCN(C)CCN(CC(O)CCCCCC/C=C\C/C=C\CCCCC)CC(O)CCCCCC/C=C\C/C=C\CCCCC (stereo not shown) [II-37] yielded a pKa of 6.81.
